Measurements: patent US5284850A, “Terpene amino alcohols and medicinal uses thereof” (Kuraray Co., Ltd., priority 1985, dated 1994)

System: sensitized bronchial muscle
Assay: Antiallergic action: inhibition of egg albumin-induced contraction of sensitized guinea pig bronchial muscle
Type: tissue-based, guinea pigs of Hartley strain
Conditions: Cavia porcellus; for inhibition at 10 µM: 10^-5 M; for inhibition at 1 µM: 10^-6 M; for inhibition at 0.1 µM: 10^-7 M; for inhibition at 0.01 µM: 10^-8 M
Experimental: Male guinea pigs of Hartley strain (body weight: about 250 g) were intraperitoneally or intramuscularly dosed with egg albumin (dose 100 mg/kg) and the same procedure was repeated after 3 days. After 3 to 4 weeks, the guinea pi-as were bled to death and the sensitized bronchial muscle was excised and cut into 1.5 mm thick rings. Three rings were joined to prepare a specimen. The specimen was suspended in a tissue bath and a load of 1 g was applied. […] After stabilization of the specimen (after about 1 hour), histamine hydrochloride was added to the bath at a final concentration of 10^-5 M. The contraction curve was recorded. After the contraction had been stabilized, the specimen was washed with 3 portions of Ringer's solution at 10-minute intervals to stabilize the contraction (about 1 hour was required). Then, the test compound was added to the tissue bath and, after an interval of 10 minutes, 5 mg/ml of egg albumin was added. The contraction amplitude of the specimen was measured and the percent inhibition was calculated according to the following formula. [formula] A: Contraction amplitude of control group when egg albumin is added A': Contraction amplitude of dosage group when egg albumin is added
H: Contraction amplitude of control group when histamine hydrochloride is added
H': Contraction amplitude of dosage group when histamine hydrochloride is added

Row | SMILES | inhibition at 10 µM | inhibition at 1 µM | inhibition at 0.1 µM | inhibition at 0.01 µM
1 | CC(C)CCCC(C)CCCC(C)(O)C(O)CN1CCOCC1 (stereo not drawn) [Compound (17), 3,7,11-trimethyl-l-morpholino-2,3-dodecanediol] | 45% | 68% | 29% | 
2 | CC(C)CCCC(C)CCCC(C)(O)C(CO)NCCCN1CCOCC1 (centres unmarked) [Compound (69)] |  | 65% | 52% | 
3 | CC(C)CCCC(C)CCCC(C)(O)C(O)CNc1ccncc1 (centres unmarked) [Compound (20)] |  | 71% | 40% | 15%
4 | CC(C)CCCC(C)CCCC(C)(O)C(O)CNc1cccc2ncccc12 (centres unmarked) [Compound (23)] |  | 76% | 55% | 27%
5 | CCCCN(CCCC)CC(O)C(C)(O)CCCC(C)C (centres unmarked) [Compound (9)] | 27.9% | 67.2% | 56% | 16%
6 | CC(C)CCCC(C)CCCC(C)CCCC(C)(O)C(O)CN (centres unmarked) [Compound (30)] | 16.7% | 9% |  | 
7 | CC(C)=CCCC(C)(O)C(CO)N(C)CCO (centres unmarked) [Compound (57)] | 35% | 17% |  | 
8 | CC(C)CCCC(C)CCCC(C)(O)C(CO)NC1CCN(Cc2ccccc2)CC1 (centres unmarked) [Compound (63)] |  | 55% | 45% | 11%
9 | CC(C)CCCC(C)CCCC(C)(O)C(O)Cn1c(=O)[nH]c2ccccc21 (centres unmarked) [Compound (25)] |  | 69% | 47% | 19%
10 | CC(C)CCCC(C)(O)C(O)CNCCO (centres unmarked) [Compound (10)] | 81.2% | 23.8% |  | 
11 | CC(C)=CCCC(C)(O)C(CO)N1CCCC1 (centres unmarked) [Compound (54)] | 54% | 63% | 33% | 20%
12 | CCCCNCC(O)C(C)(O)CCC=C(C)C (centres unmarked) [Compound (49)] |  | 61% | 20.7% | 
13 | CNCC(O)C(C)CCCC(C)CCCC(C)C (centres unmarked) [Compound (28), 1-methylamino-3,7,11-trimethyl-2-dodecanol] | 66% | 49% | 35% | 
14 | CCN(CC)CC(O)C(C)(O)CCC=C(C)C (centres unmarked) [Compound (48)] | 47% | 39% |  | 
15 | CN(CCC(C)(O)CCCC(C)(O)CCCC(C)(C)O)Cc1ccccc1 (centres unmarked) [Compound (37), 1-(methylbenzylamino)-3,7,11-trimethyl-3,7,11-dodecanetriol] |  |  | 16% | 
16 | CC(C)=CCCC(C)(O)C(O)CN(C)CCO (centres unmarked) [Compound (6)] | 48.2% | 28.6% |  | 
